Converted amounts (≈) assume the structure as drawn.
Assays:
Format in all cases: functional
Laodelphax striatellus [1] = assay: Insecticidal activity against Laodelphax striatella (small brown planthopper) assessed as mortality at 500 ppm by root soaking method
Spodoptera litura [2] = assay: Insecticidal activity against Spodoptera litura assessed as mortality at 1000 ppm by leaf dipping method; conditions: foliar
Laodelphax striatellus [3] = assay: Insecticidal activity against Laodelphax striatella (small brown planthopper) assessed as mortality at 50 ppm by root soaking method
Spodoptera litura [4] = assay: Insecticidal activity against Spodoptera litura LC50 assessed as mortality by leaf dipping method; conditions: foliar

| SMILES | mortality at 500 ppm (Laodelphax striatellus [1]) [%] | mortality at 1000 ppm (Spodoptera litura [2]) [%] | mortality at 50 ppm (Laodelphax striatellus [3]) [%] | LC50 (Spodoptera litura [4]) [µg/mL] |
| --- | --- | --- | --- | --- |
| CCOP1(=S)Oc2ccccc2CN1CC (stereo not given) | 97 | 93 | – | – |
| CCCN1Cc2ccccc2OP1(=S)OCC (stereo not given) | 40 | 73 | – | – |
| CCOP1(=S)Oc2ccccc2CN1C(C)C (stereo not given) | 43 | 90 | – | – |
| C=CCN1Cc2ccccc2OP1(=S)OC (stereo not given) | 97 | 93 | – | – |
| C=CCN1Cc2ccccc2OP1(=S)OCC (stereo not given) | 50 | 50 | – | – |
| CCOP1(=S)Oc2ccc(Cl)cc2CN1CC (stereo not given) | 10 | 20 | – | – |
| COP1(=S)Oc2ccc(Cl)cc2CN1C(C)C (stereo not given) | 73 | 40 | – | – |
| CCOP1(=S)Oc2ccc(Cl)cc2CN1C(C)C (stereo not given) | 87 | 33 | – | – |
| CCCOP1(=S)Oc2ccc(Cl)cc2CN1C(C)C (stereo not given) | 0 | 0 | – | – |
| CCCN1Cc2cc(Cl)ccc2OP1(=S)OCC (stereo not given) | 0 | 0 | – | – |
| C=CCN1Cc2cc(Cl)ccc2OP1(=S)OCC (stereo not given) | 0 | 0 | – | – |
| C=CCN1Cc2cc(Cl)ccc2OP1(=S)OCCC (stereo not given) | 0 | 13 | – | – |
| CCOP1(=S)Oc2ccc(Cl)cc2CN1CC(C)C (stereo not given) | 0 | 30 | – | – |
| CCCOP1(=S)Oc2ccc(Cl)cc2CN1CC(C)C (stereo not given) | 0 | 0 | – | – |
| CCOP1(=S)Oc2cc(Cl)c(Cl)cc2CN1CC(C)C (stereo not given) | 0 | 57 | – | – |
| CCCOP1(=S)Oc2cc(Cl)c(Cl)cc2CN1CC(C)C (stereo not given) | 0 | 17 | – | – |
| CCOP1(=S)Oc2ccc(Br)cc2CN1CC (stereo not given) | 0 | 27 | – | – |

| SMILES | mortality at 500 ppm (Laodelphax striatellus [1]) [%] | mortality at 1000 ppm (Spodoptera litura [2]) [%] | mortality at 50 ppm (Laodelphax striatellus [3]) [%] | LC50 (Spodoptera litura [4]) [µg/mL] |
| --- | --- | --- | --- | --- |
| COP1(=S)Oc2ccc(Br)cc2CN1C(C)C (stereo not given) | 100 | 60 | 85 | – |
| CCOP1(=S)Oc2ccc(Br)cc2CN1C(C)C (stereo not given) | 100 | 63 | 87 | – |
| C=CCN1Cc2cc(Br)ccc2OP1(=S)OC (stereo not given) | 0 | 18 | – | – |
| C=CCN1Cc2cc(Br)ccc2OP1(=S)OCC (stereo not given) | 0 | 20 | – | – |
| C=CCN1Cc2cc(Br)ccc2OP1(=S)OCCC (stereo not given) | 0 | 0 | – | – |
| COP1(=S)Oc2ccc(Br)cc2CN1CC(C)C (stereo not given) | 0 | 0 | – | – |
| CCOP1(=S)Oc2ccc(Br)cc2CN1CC(C)C (stereo not given) | 0 | 0 | – | – |
| CCCOP1(=S)Oc2ccc(Br)cc2CN1CC(C)C (stereo not given) | 0 | 0 | – | – |
| CCOP1(=S)Oc2cc(Br)c(Br)cc2CN1C(C)C (stereo not given) | 0 | 0 | – | – |
| CCN1Cc2cc([N+](=O)[O-])ccc2OP1(=S)OC (stereo not given) | 0 | 0 | – | – |
| CCOP1(=S)Oc2ccc([N+](=O)[O-])cc2CN1CC (stereo not given) | 0 | 0 | – | – |
| CCCOP1(=S)Oc2ccc([N+](=O)[O-])cc2CN1CC (stereo not given) | 0 | 0 | – | – |
| CCOP1(=S)Oc2ccc([N+](=O)[O-])cc2CN1C(C)C (stereo not given) | 0 | 0 | – | – |
| CCN1Cc2ccccc2OP1(=S)OC (stereo not given) | 83 | 97 | – | – |
| CCOC(=O)CC(SP(=S)(OC)OC)C(=O)OCC (stereo not given) [MALATHION] | 100 | 100 | 100 | 8.3 (≈ 25.1 µM) |
| CNC(=O)Oc1ccccc1OC(C)C [PROPOXUR] | 100 | – | 16.1 | – |

— ChEMBL document CHEMBL3046574, “Synthesis and Insecticidal Activity of 2-Alkoxy-4H-l,3,2-benzoxazaphosphorin-2-thiones” (1992)
